Laboratory results: patent publication EP0399909A1, “Cosmetic composition against skin ageing” (ELF SANOFI, priority 1989, dated 1990)

System: fibroblastes de peau humaine (ATCC No CRL 1513)
Assay: SAMe formation in cultured human skin fibroblasts with increasing betaine concentrations (HPLC determination)
Type: cell-based
Conditions: for Concentration de SAMe: 6 days culture, control without bétaïne 0,54
Procedure: L'effet exercé par la bétaïne sur la formation de SAMe a été mis en évidence par les résultats obtenus à des concentrations croissantes de bétaïne dans des fibroblastes de peau humaine (ATCC No CRL 1513) en culture. Plus précisément, les cellules (2.10⁴/ml) ont été mises en culture pendant 6 jours dans 250 ml de milieu de culture Dulbecco's Modified Eagle Medium (DMEM) contenant 20 % de sérum de veau foetal, en présence de concentrations croissantes (de 10⁻⁵ M à 5.10⁻⁴ M) de bétaïne. Au terme de la culture, les cellules ont été décollées à la trypsine (0,05 %) et à l'EDTA (0,02 %) et centrifugées. Le surnageant a été récupéré et précipité à l'acide trichloroacétique (0,2 N, v/v) puis centrifugé à nouveau. Le surnageant a été ensuite récupéré et lyophylisé. Les lyophylisats ont été repris avec de l'eau et analysés en HPLC (Colonne : Nucléosyl C8; Eluant : Solvant A (acétate de sodium 8,2 g; octylsulfonate de sodium 200 mg; acide citrique 4,2 g; EDTA 50 mg; eau q.s. pour 1 litre) 95 % et Solvant B (méthanol) 5 %) en utilisant un détecteur à 260 nm. La quantité de SAMe a été déterminée d'après une gamme étalon traitée dans les mêmes conditions expérimentales.

## C[N+](C)(C)CC(=O)[O-] [bétaïne, (CH₃)₃N⁺-CH₂-COO⁻]
Concentration de bétaïne 1 (10⁻⁵ M)
  Concentration de SAMe: 0,62 nMoles/10⁷ cellules
Concentration de bétaïne 5 (10⁻⁵ M)
  Concentration de SAMe: 0,94 nMoles/10⁷ cellules
Concentration de bétaïne 10 (10⁻⁵ M)
  Concentration de SAMe: 1,72 nMoles/10⁷ cellules
Concentration de bétaïne 50 (10⁻⁵ M)
  Concentration de SAMe: 1,90 nMoles/10⁷ cellules
In vitro, even at very low concentrations
  quantité d'adémétionine des fibroblastes de peau humaine: agit significativement
